pIC50: −log10 of the molar value.
Target: T1, recombinant glucosyltransferase domain of C. difficile Toxin B/TcdB (Clostridioides difficile, UniProt P18177)
T1 construct: 6-His (C); purchased R&D Systems 6246-GT
Experiment: biochemical

T1 sequence (P18177 1-543): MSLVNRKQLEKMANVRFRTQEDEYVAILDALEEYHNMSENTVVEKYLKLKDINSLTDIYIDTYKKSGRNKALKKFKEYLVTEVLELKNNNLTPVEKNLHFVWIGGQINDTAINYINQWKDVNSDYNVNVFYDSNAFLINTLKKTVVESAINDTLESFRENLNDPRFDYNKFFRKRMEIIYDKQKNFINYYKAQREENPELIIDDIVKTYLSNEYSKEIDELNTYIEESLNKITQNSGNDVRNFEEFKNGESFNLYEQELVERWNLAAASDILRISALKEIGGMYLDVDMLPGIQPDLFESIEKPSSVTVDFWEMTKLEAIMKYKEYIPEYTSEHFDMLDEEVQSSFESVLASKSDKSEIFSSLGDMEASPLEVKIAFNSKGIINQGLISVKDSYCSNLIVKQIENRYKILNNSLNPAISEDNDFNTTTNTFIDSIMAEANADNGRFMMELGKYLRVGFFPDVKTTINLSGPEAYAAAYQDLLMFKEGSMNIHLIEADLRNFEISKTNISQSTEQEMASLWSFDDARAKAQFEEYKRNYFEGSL

`O=C(O)c1ccc(CN2C(=O)c3ccc(Cl)cc3NC(=O)[C@H]2Cc2ccccn2)cc1Cl` [Example 7a, (R)-2-Chloro-4-((8-chloro-2,5-dioxo-3-(pyridin-2-ylmethyl)-2,3-dihydro-1H-benzo[e][1,4]diazepin-4(5H)-yl)methyl)benzoic Acid] and `Cc1cc(CN2C(=O)c3ccc(Cl)cc3NC(=O)[C@H]2Cc2ccccn2)ccc1C(=O)O` [Example 7b, (R)-4-((8-chloro-2,5-dioxo-3-(pyridin-2-ylmethyl)-2,3-dihydro-1H-benzo[e][1,4]diazepin-4(5H)-yl)methyl)-2-methylbenzoic acid] fall in the same range of pIC50: 6.00 to 7.00 for the first, 6.00 to 7.00 for the second.

First: O=C(O)c1c(Cl)cc(CN2C(=O)c3ccc(Cl)cc3NC(=O)[C@H]2Cc2ccccn2)cc1Cl [Example 7c, (R)-2,6-dichloro-4-((8-chloro-2,5-dioxo-3-(pyridin-2-ylmethyl)-2,3-dihydro-1H-benzo[e][1,4]diazepin-4(5H)-yl)methyl)benzoic acid]
Second: COc1cc(CN2C(=O)c3ccc(Cl)cc3NC(=O)[C@H]2Cc2ccccn2)ccc1C(=O)O [Example 7d, (R)-4-((8-chloro-2,5-dioxo-3-(pyridin-2-ylmethyl)-2,3-dihydro-1H-benzo[e][1,4]diazepin-4(5H)-yl)methyl)-2-methoxybenzoic acid]
The pIC50 of the first is lower: 5.00 to 6.00 for the first, 6.00 to 7.00 for the second. The second is the more potent here.

First: O=C(O)c1ccc(CN2C(=O)c3ccc(Cl)cc3NC(=O)[C@H]2Cc2ccccn2)cc1-c1ccncc1 [Example 8a, (R)-4-((8-Chloro-2,5-dioxo-3-(pyridin-2-ylmethyl)-2,3-dihydro-1H-benzo[e][1,4]diazepin-4(5H)-yl)methyl)-2-(pyridin-4-yl)benzoic Acid]
Second: O=C(O)c1ccc(CN2C(=O)c3ccc(Cl)cc3NC(=O)[C@H]2Cc2ccccn2)cc1-c1cccnc1 [Example 8m, (R)-4-((8-chloro-2,5-dioxo-3-(pyridin-2-ylmethyl)-2,3-dihydro-1H-benzo[e][1,4]diazepin-4(5H)-yl)methyl)-2-(pyridin-3-yl)benzoic acid]
The pIC50 of the first is higher: 6.00 to 7.00 for the first, 5.00 to 6.00 for the second. The first is the more potent here.

`COc1cccc(-c2cc(CN3C(=O)c4ccc(Cl)cc4NC(=O)[C@H]3Cc3ccccn3)ccc2C(=O)O)c1` [Example 8b, (R)-5-((8-chloro-2,5-dioxo-3-(pyridin-2-ylmethyl)-2,3-dihydro-1H-benzo[e][1,4]diazepin-4(5H)-yl)methyl)-3′-methoxy-[1,1′-biphenyl]-2-carboxylic acid] and `Cc1cccc(-c2cc(CN3C(=O)c4ccc(Cl)cc4NC(=O)[C@H]3Cc3ccccn3)ccc2C(=O)O)c1` [Example 8h, (R)-5-((8-chloro-2,5-dioxo-3-(pyridin-2-ylmethyl)-2,3-dihydro-1H-benzo[e][1,4]diazepin-4(5H)-yl)methyl)-3′-methyl-[1,1′-biphenyl]-2-carboxylic acid] fall in the same range of pIC50: 6.00 to 7.00 for the first, 6.00 to 7.00 for the second.

`O=C(O)c1ccc(CN2C(=O)c3ccc(Cl)cc3NC(=O)[C@H]2Cc2ccccn2)cc1-c1ccc2c(c1)OCO2` [Example 8c, (R)-2-(benzo[d][1,3]dioxol-5-yl)-4-((8-chloro-2,5-dioxo-3-(pyridin-2-ylmethyl)-2,3-dihydro-1H-benzo[e][1,4]diazepin-4(5H)-yl)methyl)benzoic acid] and `O=C(O)c1ccc(CN2C(=O)c3ccc(Cl)cc3NC(=O)[C@H]2Cc2ccccn2)cc1-c1ccc(F)c(Cl)c1` [Example 8l, (R)-3′-chloro-5-((8-chloro-2,5-dioxo-3-(pyridin-2-ylmethyl)-2,3-dihydro-1H-benzo[e][1,4]diazepin-4(5H)-yl)methyl)-4′-fluoro-[1,1′-biphenyl]-2-carboxylic acid] fall in the same range of pIC50: 6.00 to 7.00 for the first, 6.00 to 7.00 for the second.

`O=C(O)c1ccc(CN2C(=O)c3ccc(Cl)cc3NC(=O)[C@H]2Cc2ccccn2)cc1-c1ccc(F)cc1` [Example 8d, (R)-5-((8-chloro-2,5-dioxo-3-(pyridin-2-ylmethyl)-2,3-dihydro-1H-benzo[e][1,4]diazepin-4(5H)-yl)methyl)-4′-fluoro-[1,1′-biphenyl]-2-carboxylic acid] and `Cc1ccc(-c2cc(CN3C(=O)c4ccc(Cl)cc4NC(=O)[C@H]3Cc3ccccn3)ccc2C(=O)O)cc1` [Example 8g, (R)-5-((8-chloro-2,5-dioxo-3-(pyridin-2-ylmethyl)-2,3-dihydro-1H-benzo[e][1,4]diazepin-4(5H)-yl)methyl)-4′-methyl-[1,1′-biphenyl]-2-carboxylic acid] fall in the same range of pIC50: 6.00 to 7.00 for the first, 6.00 to 7.00 for the second.

`O=C(O)c1ccc(CN2C(=O)c3ccc(Cl)cc3NC(=O)[C@H]2Cc2ccccn2)cc1-c1ccccc1` [Example 8e, (R)-5-((8-chloro-2,5-dioxo-3-(pyridin-2-ylmethyl)-2,3-dihydro-1H-benzo[e][1,4]diazepin-4(5H)-yl)methyl)-[1,1′-biphenyl]-2-carboxylic acid] and `O=C(O)c1ccc(CN2C(=O)c3ccc(Cl)cc3NC(=O)[C@H]2Cc2ccccn2)cc1-c1cccc(Cl)c1` [Example 8j, (R)-3′-chloro-5-((8-chloro-2,5-dioxo-3-(pyridin-2-ylmethyl)-2,3-dihydro-1H-benzo[e][1,4]diazepin-4(5H)-yl)methyl)-[1,1′-biphenyl]-2-carboxylic acid] fall in the same range of pIC50: 6.00 to 7.00 for the first, 6.00 to 7.00 for the second.

`COc1ccc(-c2cc(CN3C(=O)c4ccc(Cl)cc4NC(=O)[C@H]3Cc3ccccn3)ccc2C(=O)O)cc1` [Example 8f, (R)-5-((8-chloro-2,5-dioxo-3-(pyridin-2-ylmethyl)-2,3-dihydro-1H-benzo[e][1,4]diazepin-4(5H)-yl)methyl)-4′-methoxy-[1,1′-biphenyl]-2-carboxylic acid] and `O=C(O)c1ccc(CN2C(=O)c3ccc(Cl)cc3NC(=O)[C@H]2Cc2ccccn2)cc1-c1ccc(Cl)cc1` [Example 8i, (R)-4′-chloro-5-((8-chloro-2,5-dioxo-3-(pyridin-2-ylmethyl)-2,3-dihydro-1H-benzo[e][1,4]diazepin-4(5H)-yl)methyl)-[1,1′-biphenyl]-2-carboxylic acid] fall in the same range of pIC50: 6.00 to 7.00 for the first, 6.00 to 7.00 for the second.

`O=C(O)c1ccc(CN2C(=O)c3ccc(Cl)cc3NC(=O)[C@H]2Cc2ccccn2)cc1-c1cccc(F)c1` [Example 8k, (R)-5-((8-chloro-2,5-dioxo-3-(pyridin-2-ylmethyl)-2,3-dihydro-1H-benzo[e][1,4]diazepin-4(5H)-yl)methyl)-3′-fluoro-[1,1′-biphenyl]-2-carboxylic acid] and `CNC(=O)c1cccc(-c2cc(CN3C(=O)c4ccc(Cl)cc4NC(=O)[C@H]3Cc3ccccn3)ccc2C(=O)O)c1` [Example 8p, (R)-5-((8-chloro-2,5-dioxo-3-(pyridin-2-ylmethyl)-2,3-dihydro-1H-benzo[e][1,4]diazepin-4(5H)-yl)methyl)-3′-(methylcarbamoyl)-[1,1′-biphenyl]-2-carboxylic acid] fall in the same range of pIC50: 6.00 to 7.00 for the first, 6.00 to 7.00 for the second.

`CC(=O)Nc1ccc(-c2cc(CN3C(=O)c4ccc(Cl)cc4NC(=O)[C@H]3Cc3ccccn3)ccc2C(=O)O)cc1` [Example 8n, (R)-4′-acetamido-5-((8-chloro-2,5-dioxo-3-(pyridin-2-ylmethyl)-2,3-dihydro-1H-benzo[e][1,4]diazepin-4(5H)-yl)methyl)-[1,1′-biphenyl]-2-carboxylic acid] and `CC(=O)Nc1cccc(-c2cc(CN3C(=O)c4ccc(Cl)cc4NC(=O)[C@H]3Cc3ccccn3)ccc2C(=O)O)c1` [Example 8q, (R)-3′-acetamido-5-((8-chloro-2,5-dioxo-3-(pyridin-2-ylmethyl)-2,3-dihydro-1H-benzo[e][1,4]diazepin-4(5H)-yl)methyl)-[1,1′-biphenyl]-2-carboxylic acid] fall in the same range of pIC50: 6.00 to 7.00 for the first, 6.00 to 7.00 for the second.

`CNC(=O)c1ccc(-c2cc(CN3C(=O)c4ccc(Cl)cc4NC(=O)[C@H]3Cc3ccccn3)ccc2C(=O)O)cc1` [Example 8o, (R)-5-((8-chloro-2,5-dioxo-3-(pyridin-2-ylmethyl)-2,3-dihydro-1H-benzo[e][1,4]diazepin-4(5H)-yl)methyl)-4′-(methylcarbamoyl)-[1,1′-biphenyl]-2-carboxylic acid] and `Cn1cc(-c2cc(CN3C(=O)c4ccc(Cl)cc4NC(=O)[C@H]3Cc3ccccn3)ccc2C(=O)O)cn1` [Example 8u, (R)-4-((8-chloro-2,5-dioxo-3-(pyridin-2-ylmethyl)-2,3-dihydro-1H-benzo[e][1,4]diazepin-4(5H)-yl)methyl)-2-(1-methyl-1H-pyrazol-4-yl)benzoic acid] fall in the same range of pIC50: 5.00 to 6.00 for the first, 5.00 to 6.00 for the second.

First: O=C(O)c1ccc(CN2C(=O)c3ccc(Cl)cc3NC(=O)[C@H]2Cc2ccccn2)cc1-c1cn[nH]c1 [Example 8r, (R)-4-((8-chloro-2,5-dioxo-3-(pyridin-2-ylmethyl)-2,3-dihydro-1H-benzo[e][1,4]diazepin-4(5H)-yl)methyl)-2-(1H-pyrazol-4-yl)benzoic acid]
Second: Cn1nccc1-c1cc(CN2C(=O)c3ccc(Cl)cc3NC(=O)[C@H]2Cc2ccccn2)ccc1C(=O)O [Example 8s, (R)-4-((8-chloro-2,5-dioxo-3-(pyridin-2-ylmethyl)-2,3-dihydro-1H-benzo[e][1,4]diazepin-4(5H)-yl)methyl)-2-(1-methyl-1H-pyrazol-5-yl)benzoic acid]
The pIC50 of the first is higher: 6.00 to 7.00 for the first, 5.00 to 6.00 for the second.

Compared with `Cc1noc(C)c1-c1cc(CN2C(=O)c3ccc(Cl)cc3NC(=O)[C@H]2Cc2ccccn2)ccc1C(=O)O` [Example 8t, 4-(((R)-8-chloro-2,5-dioxo-3-(pyridin-2-ylmethyl)-2,3-dihydro-1H-benzo[e][1,4]diazepin-4(5H)-yl)methyl)-2-(3,5-dimethylisoxazol-4-yl)benzoic acid], `Cc1ccc(NC(=O)c2ccc(CN3C(=O)c4ccc(Cl)cc4NC(=O)[C@H]3CCO)cc2)nc1` [Example 9a, (R)-4-((8-Chloro-3-(2-hydroxyethyl)-2,5-dioxo-2,3-dihydro-1H-benzo[e][1,4]diazepin-4(5H)-yl)methyl)-N-(5-methylpyridin-2-yl)benzamide] is higher in pIC50: 5.00 to 6.00 for the first, 6.00 to 7.00 for the second.

First: Cc1ccc(NC(=O)c2ccc(CN3C(=O)c4ccc(Cl)cc4NC(=O)[C@H]3CCN3CCOCC3)cc2)nc1 [Example 10a, (R)-4-((8-Chloro-3-(2-morpholinoethyl)-2,5-dioxo-2,3-dihydro-1H-benzo[e][1,4]diazepin-4(5H)-yl)methyl)-N-(5-methylpyridin-2-yl)benzamide]
Second: Cc1ccc(NC(=O)c2ccc(CN3C(=O)c4ccc(Cl)cc4NC(=O)[C@H]3CCN3CCCCC3)cc2)nc1 [Example 10b, (R)-4-((8-chloro-2,5-dioxo-3-(2-(piperidin-1-yl)ethyl)-2,3-dihydro-1H-benzo[e][1,4]diazepin-4(5H)-yl)methyl)-N-(5-methylpyridin-2-yl)benzamide]
The pIC50 of the first is higher: 5.00 to 6.00 for the first, 4.46 to 5.00 for the second. The first is the more potent here.
